These are literature values, as cited in patent publication US10208167B2, “Cyclodextrins with one or more poly(ethylene glycol) units, inclusion compounds and drug delivery vehicles including the same, and methods of making and using the same” (The Board of Trustees of the California State University, priority 2015, dated 2019).

The test system of data set [1] is human salivary and pancreatic amylases.

For `OC[C@H]1O[C@@H]2O[C@H]3[C@H](O)[C@@H](O)[C@@H](O[C@H]4[C@H](O)[C@@H](O)[C@@H](O[C@H]5[C@H](O)[C@@H](O)[C@@H](O[C@H]6[C@H](O)[C@@H](O)[C@@H](O[C@H]7[C@H](O)[C@@H](O)[C@@H](O[C@H]1[C@H](O)[C@H]2O)O[C@@H]7CO)O[C@@H]6CO)O[C@@H]5CO)O[C@@H]4CO)O[C@@H]3CO` [α-CD, α-cyclodextrin], the “hydrolysis by human salivary and pancreatic amylases” value in data set [1] is “not hydrolyzed”. The “fermentation in the intestinal microflora” value in the data set with intestinal microflora is recorded as “can be fermented”.
On to `OC[C@H]1O[C@@H]2O[C@H]3[C@H](O)[C@@H](O)[C@@H](O[C@H]4[C@H](O)[C@@H](O)[C@@H](O[C@H]5[C@H](O)[C@@H](O)[C@@H](O[C@H]6[C@H](O)[C@@H](O)[C@@H](O[C@H]7[C@H](O)[C@@H](O)[C@@H](O[C@H]8[C@H](O)[C@@H](O)[C@@H](O[C@H]9[C@H](O)[C@@H](O)[C@@H](O[C@H]1[C@H](O)[C@H]2O)O[C@@H]9CO)O[C@@H]8CO)O[C@@H]7CO)O[C@@H]6CO)O[C@@H]5CO)O[C@@H]4CO)O[C@@H]3CO` [γ-CD, γ-cyclodextrin], for which the “hydrolysis by human salivary and pancreatic amylases” value in data set [1] is listed as “not hydrolyzed”.
